From US8728777B2, “High performance metabolic bacteria” (Deinove, priority 2009, dated 2014)

How the values were obtained:
[1] = tested on: Deinococcus strain MC2-2A; conditions: 2 hours incubation, minimum concentration with loss of one log in relation to the control
Experimental: (§1) This method enables evaluation of the micro-organism sensitivity to ethanol. The test is carried out at 45° C. (Thermophilic strains). Ethanol bactericidy is determined with ethanol added at: • T0, • exponential phase, • stationary phase.
(§2) Ethanol Bactericidy at Exponential and Stationary Phases Test:
(§3) From a pre-culture in stationary phase in an enriched culture medium, for each ethanol content to be tested, 5 mL of Complex medium Glucose is seeded at 1% v/v.
(§4) Complex Medium Glucose contains: peptone 2 g/L, yeast extract 5 g/L and glucose 10 g/Lin osmosed water: solution sterilized by autoclaving (15 minutes at 120° C.). To this solution are added the following solutions: MOPS buffer solution (10×) pH7 [acid MOPS 400 mM, NH4Cl 200 mM, NaOH 100 mM, KOH 100 mM, CaCl2 5 μM, Na2SO4 2.76 mM, MgCl2 5.28 mM]; micronutrients (10000×) [[…] 300 mM, H3BO3 4 mM, CoCl2 0.3 mM, CuSO4 0.1 mM, MnCl2 2.5 mM, ZnSO4 0.1 mM]; FeCl3(100×) 2 mM in C6H5Na3O7 20 mM; K2HPO4 1 g/L: solutions sterilized by filtration (0.2 μm).
(§5) A follow-up of growth is carried out using the control culture (no ethanol add neither at exponential phase nor at stationary phase). OD is read at 600 nm using a spectrophotometer (UV Light XS5, SECOMAM).
(§6) Once the exponential growth phase (optical density of 0.5 at 600 nm), or once the stationary phase (plateau), is reached, the solvent is added. The content tested is 0 to 20%. Then, cultures are incubated during 2 hours.
(§7) At the end of the incubation period and for each ethanol content tested, a count is taken to assess the influence of the ethanol on the strain.
(§8) Count: At the end of incubation, and for each concentration in solvent, 200 μL of culture are transferred onto another microplate and are diluted in cascade (dilutions at 1/10 over 9 wells). The dilution culture medium is an enriched medium.

[2] = tested on: Deinococcus strain M13-1A; conditions: ethanol added at exponential phase, 2 hours incubation, minimum concentration with loss of one log in relation to the control
Experimental: as §1, §2, §3, §4, §5, §6, §7, §8

[3] = tested on: Deinococcus strain MC2-2A; conditions: ethanol added at T0, 45° C., aerobiosis, Complex medium Glucose, minimum concentration with total growth inhibition
Experimental: as §1
(§9) For ethanol bactericidy at T0, ethanol percentages between 0 to 10% are tested.
(§10) From a pre-culture in stationary phase in an enriched culture medium, for each ethanol content to be tested, 200 μl of Complex medium Glucose is seeded at 1% v/v.
as §4
(§11) The test is performed in 96 wells microplates in aerobiosis. Ethanol evaporation is avoided using a sterile impermeable film.
(§12) The reading of the result is done by naked eye.

[4] = tested on: Deinococcus strain M13-1A; conditions: ethanol added at T0, 45° C., aerobiosis, Complex medium Glucose, minimum concentration with total growth inhibition
Experimental: as §1, §9, §10, §4, §11, §12

SMILES: CCO [Ethanol, ethanol]
- Ethanol Bactericidy Exponential phase ([1]; ethanol added at exponential phase): 15%
- Ethanol Bactericidy Stationary phase ([1]; ethanol added at stationary phase): 15%
- Ethanol Bactericidy Exponential phase [2]: 5%
- Ethanol Bactericidy T0 [3]: 5%
- Ethanol Bactericidy T0 [4]: 2.5%
